Measured values: patent US20060099220A1, “Antibodies against and methods for producing vaccines for respiratory syncytial virus” (MEDIMMUNE, INC., priority 2004, published 2006)
“And” between values parts separate entries of the source, which are not always exact repeats. Equal entries are not always repeated. Where no end group is shown, it is not given here.

Experiments:
Numax™ (MEDI-524) = Numax™ (MEDI-524) (Homo sapiens, UniProt P01834+P01857); experiment: Binding ELISA of F-peptides; conditions: peptide coated on plate, MEDI-524 detected with anti-human IgG-HRP
Procedure: Based in part upon the results of the MARM analysis above, F peptides were synthesized (done by AnaSpec, Inc. San Jose, Calif.). Each well of the assay plate was coated with […] of […] of a particular soluble RSV F-Peptide overnight at 2-8° C. After the plate was aspirated and washed with PBS/0.05% Tween-20 buffer, it was blocked by incubating with PBS/0.05% Tween-20/0.5% BSA buffer for one hour at ambient temperature. The plate was washed and MEDI-524 standard curve samples, test samples, MEDI-524 Reference Standard, and negative control were added to the washed plate. Following a one-hour incubation at ambient temperature, the plate was washed, and […] of a goat anti-human IgG-HRP (horseradish peroxidase) at 1:16,000 dilution was added to the plate. After washing, […] of 3,3′,5,5′-tetramethylbenzidine (TMB) substrate was then added to the plate and incubated at ambient temperature protected from light for 10 minutes. The enzymatic reaction was stopped by adding […] of 2N H2SO4, and the absorbance at 450 nm was measured using a microplate reader. […] After meeting all system suitability requirements, as well as meeting the criteria of the parallelism test, the ED50 ratio of the test sample to Reference Standard was calculated, and the results were expressed as a percentage of the Reference Standard binding activity. […]

MEDI-524 Fab = biological target: T1, MEDI-524 Fab (Homo sapiens, UniProt P01834+P01857); experiment: Isothermal titration calorimetry (ITC) of F peptides with MEDI-524 Fab; assay type: binding; conditions: at 18° C., 25 mM His, pH 6.07
T1 construct: 0.088 mg/mL (1.88 μM-46.3 KDa) of MEDI-524 Fab
Procedure: For this set of experiments, […] (1.16 μM-148.4 KDa) of MEDI-524 Mab and 0.088 mg/mL (1.88 μM-46.3 KDa) of MEDI-524 Fab, both in 25 mM His, pH 6.07 were used. On the other hand, 250 μL of 1 mg/mL of the different peptides dissolved in H2O, were provided by ABC. The peptides were then diluted into the appropriate volume of buffer to give a final concentration of 50 μM. The ITC experiments were run at 18° C. with the macromolecule (Mab or Fab) in the cell, by doing ˜26 injections of 10 μL of peptides, spaced 360 sec with constant stirring. The data fitting was accomplished by subtracting the average value of the few last injections as the buffer and unspecific heat of dilution contributions. […] A note apart is the fact that the observed binding capacity (N) increases with the length of the peptide, indicating possibly an extra conformational factor in the binding event. The entropic contribution: For the peptides SEQ ID NOs.24 and 26, the entropic factor seems to be similar; the extra amino acids at the end of the N-terminal seems not to affect greatly the binding parameters. On the other hand, the elongation at the C-terminal seems to decrease slightly the binding enthalpy, the binding constant, as well as the entropic factor. […] The binding constant seems to be smaller (weaker) for both 30-mer peptides respect to the 26-mer.

Numax™ = Numax™ (Homo sapiens, UniProt P01834+P01857); experiment: Biacore kinetic analysis of F peptides on captured Numax™; assay type: binding; conditions: F peptide 100 nM over captured Numax™, Biacore 3000
Procedure: All studies were performed using Sensor Chip CM5 (Biacore AB, Uppsala, Sweden) which contains a carboxymethyl (CM) dextran matrix and a Biacore® 3000 surface plasmon resonance (SPR) biosensor (Biacore AB, Uppsala, Sweden).
Numax™ was captured via a high-affinity interaction between the Fc portion of Numax™ and a goat anti-human IgG(Fc) (KPL, Inc., Gaithersburg, Md.). Goat anti-human IgG(Fc) was covalently attached to the CM dextran matrix using amine coupling chemistry. Two anti-human IgG(Fc)-specific surfaces were created. Numax™ was diluted to 10.9 μg/mL with HBS-EP and flowed for 1 min. across one of the anti-human IgG (Fc) surfaces at a flow rate of 5 μL/min. The other anti-human IgG(Fc) surface was used as a reference surface. F peptide was prepared by dilution in HBS-EP (0.01 M Hepes pH 7.4, 0.15 M NaCl, 3 mM EDTA, 0.005% surfactant P20) to a final concentration of 100 nM. F peptide was injected for 1 min. in a serial-flow manner across the reference surface and the Numax™-specific surface. Dissociation of bound F peptide was monitored for 2 min in the presence of HBS-EP. After this dissociation period, Numax™ and F peptide were removed with a 30-sec injection of 10 mM glycine pH 1.7 (Biacore AB, Uppsala, Sweden). Because of the removal of Numax™, it was necessary to create a new Numax™-specific surface prior to the injection of each F peptide.

MEDI-524 Mab = experiment: Isothermal titration calorimetry (ITC) of F peptides with MEDI-524 Mab; assay type: binding; conditions: 25 mM His, pH 6 at 10° C.
Procedure: To evaluate the binding properties of the wild-type peptide (SEQ ID NO.28) to Numax™/MEDI-524 by using the ITC technique. The MEDI-524 Mab was titrated with SEQ ID NO.28 in the basis buffer 25 mM His, pH 6 at 10° C. SEQ ID NO.28: (MW=2732.14, no W, Y, or C). A working solution of 55 μM was prepared by diluting 30 μL of a 5 mg/mL peptide solution with 970 μL of 25 mM His, pH 6 buffer to be used for the ITC titrations. A 1.15 μM (0.1706 mg/ml) working solution of MEDI-524 was used for the experiments (MW 148400, A280=1.47).
For this set of experiments, […] (1.16 μM-148.4 KDa) of MEDI-524 Mab and 0.088 mg/mL (1.88 μM-46.3 KDa) of MEDI-524 Fab, both in 25 mM His, pH 6.07 were used. On the other hand, 250 μL of 1 mg/mL of the different peptides dissolved in H2O, were provided by ABC. The peptides were then diluted into the appropriate volume of buffer to give a final concentration of 50 μM. The ITC experiments were run at 18° C. with the macromolecule (Mab or Fab) in the cell, by doing ˜26 injections of 10 μL of peptides, spaced 360 sec with constant stirring. The data fitting was accomplished by subtracting the average value of the few last injections as the buffer and unspecific heat of dilution contributions. […]

[1] = tested on: RSV MARM B2 (F protein K272M); experiment: Microneutralization assay of MARM B2; conditions: selection Synagis ®
[2] = tested on: RSV MARM B9 (F protein K272Q); experiment: Microneutralization assay of MARM B9; conditions: selection Synagis ®
[3] = tested on: RSV MARMs #6 and NuMARM3 (F protein K272E); experiment: Microneutralization assay of K272E MARMs; conditions: for Neutralization of RSV: residue 272 altered from lysine (K) to glutamic acid (E)
[4] = tested on: RSV MARM B7 (F protein K272T); experiment: Microneutralization assay of MARM B7; conditions: selection Synagis ®
[5] = tested on: RSV MARM #13 (F protein N262K, K272Q); experiment: Microneutralization assay of MARM #13; conditions: MARM #13, N262K and K272Q, selection Synagis ® then A4b4
[6] = tested on: RSV MARM B1 (F protein K272N); experiment: Microneutralization assay of monoclonal antibody resistant mutant (MARM) B1; conditions: selection Synagis ®
[7] = tested on: RSV MARM #10 (F protein K272E, N276Y); experiment: Microneutralization assay of MARM #10; conditions: MARM #10, K272E and N276Y, selection A4b4
[8] = tested on: RSV with F protein mutations at position 272 other than K272E; experiment: Microneutralization assay of MARMs, other mutations at position 272; conditions: all other mutations indicated at position 272
RSV F protein = experiment: BIAcore analysis of Numax Ref. Std.; assay type: binding; conditions: Numax reference standard
From the text: BIAcore analysis can measure the kinetic interactions of anti-RSV antibodies with RSV F peptides by surface plasmon resonance using a BIAcore 1000, 2000, or 3000 instrument (Biacore, Uppsala, Sweden). Purified recombinant, C-terminally truncated F protein was covalently coupled to a (1-ethyl-3-[3-dimethylaminopropyl]carbodiimide hydrochloride)/N-hydroxysuccinimide-activated CM5 sensor chip at a low protein density (see Johnsson et al. (1991) Anal. Biochem. 198, 268-277). The unreacted active ester groups were blocked with 1 M ethanolamine. For use as a reference, when the BIAcore 2000 or 3000 instrument was used, a blank surface, containing no antigen, was prepared under identical immobilization conditions. To minimize binding variations caused by different lots of F proteins, most of the antibodies were measured against the same lot of F protein. In several cases when different lots of F proteins were used, their binding to an anti-RSV antibody was used as a reference to make sure that these lots had similar binding characteristics to the lot that is used mainly. A serial 2-fold dilution series of purified antibodies, ranging from 0.2 to 100 nm in HBS/Tween 20 buffer (BIAcore), was injected over the F-protein and reference cell surfaces, which were connected in series. In each measurement, the residual antibody was removed from the sensor chip by a brief pulse of 100 mM HCl. The binding curves were globally fitted to a 1:1 Langmuir binding model using the BIAevaluation program. This algorithm calculates both kon and koff. The apparent equilibrium dissociation constant, Kd, was deduced as the ratio of the two rate constants, koff/kon.

[9] = MARM NuMARM3, K272E, selection Numax ™

T1 sequence (P01857 with tags, fused parts or gaps limits assumed, other chains not shown): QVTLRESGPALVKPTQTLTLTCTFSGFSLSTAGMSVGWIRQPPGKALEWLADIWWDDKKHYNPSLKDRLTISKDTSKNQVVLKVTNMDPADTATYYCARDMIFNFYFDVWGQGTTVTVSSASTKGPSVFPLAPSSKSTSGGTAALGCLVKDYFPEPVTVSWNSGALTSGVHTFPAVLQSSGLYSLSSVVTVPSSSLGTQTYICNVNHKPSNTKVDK
Numax™, sequence (P01857 with tags, fused parts or gaps limits assumed, other chains not shown): as above
Numax™ (MEDI-524), sequence (P01857 with tags, fused parts or gaps limits assumed, other chains not shown): as above

Molecule	Ka (association constant) (MEDI-524 Fab) [M⁻¹]	ΔHbinding (MEDI-524 Fab) [kcal/mol]	ΔSbinding (MEDI-524 Fab)	ka (Numax™)	kd (Numax™)	Kd (Numax™)	Neutraliz by antibody ? [1]	Neutraliz by antibody ? [2]	Neutraliz by antibody ? ([3]; MARM #6, K272E, selection A4b4)	Neutraliz by antibody ? [3, 9]	Neutralization of RSV [3]	Neutraliz by antibody ? [4]	Neutraliz by antibody ? [5]	Neutraliz by antibody ? [6]	Neutraliz by antibody ? [7]	other results
F peptide with a histidine at position 262: F peptide with histidine at position 262 tested in the Numax binding ELISA; probably SEQ ID No. 13 (NSELLSLIHDMPITNDQKKLMSNN; Derived from respiratory syncytial virus sequence)																Binding to Numax™ compared with wild-type F protein epitope (SEQ ID NO.1) (Numax™ (MEDI-524)): more tightly
NSELLSLIHDMPITNDQKKLMSNNVQIVRQ-NH2 (C-terminus assumed) [SEQ ID NO: 25]	6.5e+06	-10.4	−4.7	2.50E+05 and 3.62E+05	1.81E−03 and 1.97E−03	7.23 nM and 5.44 nM										
NSELLSLINDMPITNDQKKLMSNN-NH2 [SEQ ID NO.28]																binding strength compared to the SEQ ID NO.24 peptide (MEDI-524 Mab): ~3 orders of magnitude lower
STYMLTNSELLSLIHDMPITNDQKKLMSNN-NH2 (C-terminus assumed) [SEQ ID NO: 26]	7.1e+06	-11.4	−8.1	2.43E+05	5.52E−03	22.7 nM										
Synagis ®: humanized RSV monoclonal antibody directed against the F glycoprotein of RSV [reference compound]							No	No	No	No	longer neutralized RSV	No	No	No	No	Neutraliz by antibody ? ([5]; listed as Synagis®): lost their ability to neutralize
Numax ™: enhanced potency RSV-specific monoclonal antibody derived by in vitro affinity maturation of palivizumab (antibody, listed as Chimaera sp., V domains shown) VH: QVTLRESGPALVKPTQTLTLTCTFSGFSLSTAGMSVGWIRQPPGKALEWLADIWWDDKKHYNPSLKDRLTISKDTSKNQVVLKVTNMDPADTATYYCARDMIFNFYFDVWGQGTTVTVSS VL: DIQMTQSPSTLSASVGDRVTITCSASSRVGYMHWYQQKPGKAPKLLIYDTFFLDSGVPSRFSGSGSGTEFTLTISSLQPDDFATYYCFQGSGYPFTFGGGTKVEIK							Yes	Yes	No	No	longer neutralized RSV	Yes	No	Yes	No	Neutraliz by antibody ? ([2]; listed as Numax™): did not knock out Numax™ neutralization; Ability to neutralize RSV [8]: retain its ability to neutralize; Kd (RSV F protein): 0.004 nM; ka (RSV F protein): 4.70E+05; kd (RSV F protein): 1.88E−06; Neutraliz by antibody ? ([5]; listed as Numax™): lost their ability to neutralize
